Reference: publication PMC11053681, “Gold(I) and Silver(I) Complexes Containing Hybrid Sulfonamide/Thiourea Ligands as Potential Leishmanicidal Agents” (Pharmaceutics, 2024)
Several values for one entry are separate records, joined by “and”; a condition that tells them apart may be missing. Equal values may be shown once. Entries after “also recorded” stand apart in the source; their conditions may differ. Read-outs that look alike come from different tables or passages of the source.

What was measured:
Vero cells = experiment: Cytotoxicity assay on Vero cells (resazurin); format: cell-based, African green monkey; details: 24 h treatment
Procedure: (§1) For the experiment, Vero cells (ATCC CRL-1587) were used in Roswell Parl Memorial Institute (RPMI) medium with 10% fetal bovine serum (FBS) (RPMI 10%) and 20 μg/mL of Gentamicin. They were cultivated in culture bottles of […] and kept in an oven at 37 °C with 5% carbon dioxide (CO2). When picked or used on the day of the experiment, the cells were detached from the wall of the bottles with saline and 1X trypsin/EDTA. To find out how many cells there were in the bottle, it was diluted in Turkey liquid and then we proceeded with the counting in the Neubauer Chamber to calculate the desired concentrations. The Vero cells were plated at […] cells per well, in 96-well plates, and kept in an incubator with 5% CO2 at 37 °C for 24 h. Then, the compounds were added in triplicate, starting at a concentration of 500 µM, with serial dilution being performed up to a concentration of 3.9 µM [54]. The treatment was carried out for 24 h, and, after adding 5 µL of resazurin, the fluorescence was read using a spectrofluorometer (EnSpire Perkin-Elmer, Waltham, MA, USA).

Leishmania braziliensis = experiment: Leishmanicidal activity against promastigotes (resazurin); format: cell-based; details: for IC50: promastigote form, 24 h treatment, resazurin, read-out: IC50 L. braziliensis; for SI L. braziliensis: selectivity index = CC50 (Vero) / IC50 (L. braziliensis promastigotes)
Procedure: (§2) The Leishmania infantum and Leishmania braziliensis strains were maintained in Schneider medium supplemented with 20% of SFB (Schneider 20%), cultivated in […] bottles and stored at 28 °C in a BOD oven. For the assays, parasites at the 5th day stationary growth phase were used.
(§3) The promastigotes metacyclic form of Leishmania infantum and Leishmania braziliensis were first filtered with an insulin syringe to break up rosettes and, then, were isolated from the culture in the stationary phase by centrifugation of 400× g for 4 min at a temperature of 4 °C [53]. The supernatant was subjected to a new centrifugation, heavier, of 2000× g for 30 min, also at 4 °C. The supernatant was discarded and the cell pallet formed from this centrifugation was resuspended in 10 mL of 10% Schneider medium. The process ensured the removal of cellular debris and dead parasites, as well as possible crystals from the culture medium, so that the quality of the experiment was guaranteed. Then, the promastigotes were diluted to 1:10 in paraformaldehyde (PFA) for counting in a Neubauer Chamber, with the concentrations adjusted for each experiment.
(§4) An amount of 1 × 10^7 parasites per well was used. The parasites were plated in 96-well plates. Then, the compounds were added in triplicate, starting at a concentration of 500 µM, with serial dilutions being performed up to a concentration of 3.9 µM [53]. The treatment was carried out for 24 h and, after adding 5 µL of resazurin, the fluorescence was read using a Enspire model spectrofluorometer (Perkin-Elmer, Waltham, MA, USA).

Leishmania infantum = experiment: as above; format: cell-based; details: for IC50: promastigote form, 24 h treatment, resazurin, read-out: IC50 L. infantum; for SI L. infantum: selectivity index = CC50 (Vero) / IC50 (L. infantum promastigotes)
Procedure: as §2, §3, §4

LbOYE [1] = target: T1, LbOYE (Leishmania braziliensis, UniProt A4H6Z3); experiment: Suppression of intrinsic tryptophan fluorescence of LbOYE; format: binding; details: for Kd / Ksv *** (Stern–Volmer constant) / n ** (number of bonding sites): 25 °C; for Ksv *** (Stern–Volmer constant): Equation (3); for Affinity of LbOYE for the compound (fluorescence quenching), in words: Hill fit for Kd not possible for these ligands
Source text: The recombinant LbOYE protein was produced using the methodology previously described. Briefly, the protein was expressed in strains of bacterial Escherichia coli BL21(DE3) through induction by IPTG using the pET28a:LbOYE vector. The enzyme was purified through a chromatography step of capture by nickel affinity, as the pET28a vector allows the expression of a polyhistidine fusion peptide, located at the N-terminal end of the protein. After affinity purification, the polyhistidine tail was excised by “overnight” incubation with thrombin, and the second purification step was performed using size exclusion chromatography. Purification was evaluated by SDS-PAGE and protein concentration was estimated by spectrophotometry.
The emission spectra of the intrinsic fluorescence of the tryptophan were recorded using a Shimadzu F-4500 spectrofluorometer in the range of 310–420 nm, with opening of slits of excitation and emission at 5.0 nm and λex = 295 nm. Interaction analyzes between LbOYE and ligands were performed at λmax = 333 nm.
(§5) The compounds were solubilized in DMSO and then we made successive dilutions in a Tris-HCl 25 mmol L^−1 buffer, pH 8.0, containing 100 mmol L^−1 of NaCl. For all experiments, the final concentration of DMSO was kept constant and equal to 2.5%. Solutions with increasing concentrations of ligand and constant concentration of LbOYE (1 µmol L^−1) were prepared, which were kept at 25 °C for a period of 1h before acquisition of fluorescence emission spectra.
The results were obtained from the fluorescence emission spectra of the intrinsic tryptophan probe in the presence of the compounds HL1^Ch, HL3^FPh, HL5^NO2Ph, [Au(HL1^Ch)2]Cl and [Ag(HL3^FPh)2]NO3. The bonding parameters were determined by the Hill plot, obtaining the dissociation constant (Kd) through the non-linear adjustment of the saturation curve to the experimental data. The double-log plot was used to determine the bonding constant and the number of bonding sites (n). It also allows the calculation of the bonding constant (Kb) and Kd from 1/Kb.
Equation (1)—Hill’s equation:(1) F0−F/F0=[L]/L+Kd
Equation (2)—Double-log:(2) logF0−F/F0=nlogKb−nlog1/L−(F0−F)[P0]/F
Equation (3)—Equation of Stern–Volmer:(3) F0/F=1+KSV[L]
The study of fluorescence quenching can be affected when the ligand has absorption bands that coincide with excitation and emission wavelengths of fluorescence. This interference is called the internal filter effect, which can be minimized using the procedure described by Equation (4). Fobs and Fcor are the fluorescence intensities at 333 nm measured and corrected, respectively; l represents the optical step where the absorption and emission of light occurs and C0 is the concentration of the ligand.
For the correction of the internal filter effect, were used the molar absorptivity coefficient values in the excitation (295 nm) and emission (333 nm) lengths, [λ/ε (L mol^−1 cm^−1)]; HL1^Ch (εex = 373 and εem = 117), HL3^FPh (εex = 1191 and εem = 57), HL5^NO2Ph (εex = 6162 and εem = 9124), Au1 (εex = 7045 and εem = 4008) and Ag3 (εex = 9431 and εem = 3281).

LbOYE [2] = target: T1, LbOYE; experiment: LbOYE enzyme kinetics (NADPH decay at 340 nm); format: biochemical; details: 20 µmol L^−1 compound, 1 µmol L^−1 LbOYE, 100 µmol L^−1 NADPH; substrates NEM and O2
Procedure: The initial rates were obtained through the decay of the band at 340 nm referring to the maximum absorption of the NADPH (Nicotinamide Adenine Dinucleotide Phosphate) reducer, as previously reported. Solutions containing 1 µmol L^−1 of LbOYE, DMSO or 20 µmol L^−1 of the tested compounds from a stock solution at a concentration of 5 mmol L^−1 in DMSO were prepared in the presence and absence of the substrate N-Ethylmaleimide (NEM). These solutions were left for 30 min at room temperature. After 30 min, the NADPH reducer was added at a final concentration of 100 µmol L^−1.
Figure 7 Initial velocity (V0) for the reaction between 1 µmol L^−1 of LbOYE and 100 µmol L^−1 of NADPH in the presence of DMSO (control) or 20 µmol L^−1 of the compounds tested. Using (A) 100 µmol L^−1 of NEM in the presence of O2 and (B) absence of NEM in the presence of O2. Experiments carried out in phosphate buffer 25 mmol L^−1 pH 7.0, NaCl 100 mmol L^−1.

[3] = Solubility in buffer for the fluorescence experiments; format: physicochemical; details: Tris-HCl buffer
Procedure: as §5
After the synthesis and structural characterization of the compounds, studies of interaction of the compounds and the recombinant LbOYE were carried out by fluorescence measurements.

[4] = Cytotoxicity assay on Vero cells (resazurin); format: cell-based, African green monkey; details: African green monkey, Vero cells (ATCC CRL-1587), 24 h treatment
Procedure: as §1

[5] = tested on: RAW macrophages infected with Leishmania infantum; experiment: Infectivity test / infection rate in RAW macrophages; format: cell-based; details: three concentrations (below IC50, IC50, above IC50), 24 h treatment
Procedure: For the infection of RAW macrophages adhered to the plates, we used parasites in the promastigote form of Leishmania infantum, in the stationary phase, in a ratio of 10:1 (promastigotes/macrophages).
Macrophages were plated in the amount of 5 × 10^4 cells per well, in 96-well plates, which were kept in a CO2 oven at 37 °C for 24 h. The parasites were plated at a concentration of 10:1. The plates were kept in a CO2 oven for 12 h until the parasites infected the cells. […] Plates were fixed with paraformol for further evaluation. Plaques were evaluated by counting parasites within 200 cells under the EVOS Cell Imaging System (Thermo Scientific, Waltham, MA, USA) microscope by staining with propidium iodide.
In view of the data obtained, the six most promising compounds (HL1^Ch, HL2^Ph, Ag3, Ag4, Ag6 and Au2) were selected for carrying out the infection rate test against the L. infantum parasite. […] This test was performed at four stages. The first step determined the percentage of the amount in 200 infected macrophages per parasite, the second determined the percentage of parasites that infects 100 cells/macrophages, the third determined the average percentage of parasites that infects 200 cells/macrophages and, finally, the fourth step indicated the infection rate, that is, the result of the amount of Leishmania per macrophage (obtained from the third step) multiplied by the percentage of infected macrophages. Figure 5 presents the graphs of the infection rates, while the other graphs can be found in Figure S7.4.

L. infantum = tested on: L. infantum; set-up: method as in PMID 21833767, PMID 22926569; details: conditions and methods vary; read-out: Antileishmanial activity of other compounds; cited from earlier work
L. braziliensis = tested on: L. braziliensis; set-up: method as in PMID 32830445; details: activity against L. braziliensis and cytotoxicity on macrophages; cited from earlier work
[6] = Hill plot (n = 1), Equation (1), Tris-HCl pH 8.0, 2.5% DMSO, read-out: Kd * (Hill plot)
[7] = double log, Equation (2), Kd = 1/Kb, read-out: Kd ** (double log) (converted)

T1 sequence (A4H6Z3 entry or part of it): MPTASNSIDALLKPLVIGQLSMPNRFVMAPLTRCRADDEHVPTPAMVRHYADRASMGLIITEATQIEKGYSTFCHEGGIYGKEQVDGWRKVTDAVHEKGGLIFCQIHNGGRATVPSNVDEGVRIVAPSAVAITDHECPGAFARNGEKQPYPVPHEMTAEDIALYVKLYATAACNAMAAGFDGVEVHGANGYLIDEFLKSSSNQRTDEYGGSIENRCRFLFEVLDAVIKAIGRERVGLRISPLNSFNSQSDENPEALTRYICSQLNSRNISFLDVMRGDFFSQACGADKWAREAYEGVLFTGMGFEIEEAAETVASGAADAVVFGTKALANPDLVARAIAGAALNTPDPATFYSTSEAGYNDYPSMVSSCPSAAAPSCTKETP

SMILES	SI L. braziliensis (Leishmania braziliensis)	SI L. infantum (Leishmania infantum)	Solubility in buffer at the concentrations for the fluorescence experiments, in words [3]	CC50 at 24 h [4]	IC50 (Leishmania braziliensis; Leishmania braziliensis)	IC50 (Leishmania infantum; Leishmania infantum)	IC50 (L. infantum)	other results
Cc1ccc(S(=O)(=O)NNC(NC2CCCCC2)=[S][Au+][S]=C(NNS(=O)(=O)c2ccc(C)cc2)NC2CCCCC2)cc1.[Cl-] [Au1, [Au(HL1^Ch)2]Cl]	0.26	0.19	passed this stage	–	–	–	–	CC50 (Vero cells): 19.9 µM; IC50 (Leishmania braziliensis): 77.38 ± 0.018 µM; IC50 (Leishmania infantum): 105 ± 3.14 µM; Kd (LbOYE [1]; [6]): 110 ± 30 µM; Ksv *** (Stern–Volmer constant) (LbOYE [1]): 2.4 ± 0.2 × 10^4; Kd (LbOYE [1]; [7]): 39 ± 3 µM; n ** (number of bonding sites) (LbOYE [1]; double log, Equation (2)): 1.8 ± 0.1; Inhibition of LbOYE reaction (initial velocity V0), in words (LbOYE [2]): demonstrates capacity of inhibition, although less than the Ag3
Cc1ccc(S(=O)(=O)NNC(=S)NC2CCCCC2)cc1 [HL1^Ch]	2.27	26.6 and 26.64	passed this stage	293 µM	128.9 ± 0.051 µM	11 ± 0.306 µM	–	Infection rate of L. infantum in macrophages, in words [5]: considerably lowered the infection rate of the parasite even at a concentration below its IC50; Affinity of LbOYE for the compound (fluorescence quenching), in words (LbOYE [1]): lower affinity
Cc1ccc(S(=O)(=O)NNC(=S)Nc2ccccc2)cc1 [HL2^Ph]	0.98	5.5 and 5.54	–	268 µM	273.5 ± 0.018 µM	48.39 ± 0.189 µM	–	Infection rate of L. infantum in macrophages, in words [5]: the infection index was not relevant for a concentration below its IC50
Cc1ccc(S(=O)(=O)NNC(=S)Nc2ccc(F)cc2)cc1 [HL3^FPh, N-(4-fluorophenyl)-2-tosylhydrazinocarbothioamide]	1.43	1.450	passed this stage	292 µM	204.5 ± 0.018 µM	201.2 ± 0.052 µM	–	Affinity of LbOYE for the compound (fluorescence quenching), in words (LbOYE [1]): lower affinity; also recorded: low affinity
Cc1ccc(S(=O)(=O)NNC(=S)Nc2ccc([N+](=O)[O-])cc2)cc1 [HL5^NO2Ph, N-(4-nitrophenyl)-2-tosylhydrazinocarbothioamide]	1.40	0.09	passed this stage	26.6 µM	19.02 ± 0.012 µM	286.9 ± 0.075 µM	–	Kd (LbOYE [1]; [6]): 35 ± 2 µM; Ksv *** (Stern–Volmer constant) (LbOYE [1]): 6.5 ± 0.4 × 10^4; Kd (LbOYE [1]; [7]): 19 ± 1 µM; n ** (number of bonding sites) (LbOYE [1]; double log, Equation (2)): 1.5 ± 0.1
CCP(CC)CC.[Au+].[Cl-] [[AuCl(PEt3)]]	–	–	–	–	–	–	16.6 ± 1.03 µM	–
C[C@@H]1[C@H](O)[C@@H](C)/C=C/C=C/C=C/C=C/C=C/C=C/C=C/[C@H](O[C@@H]2O[C@H](C)[C@@H](O)[C@H](N)[C@@H]2O)C[C@@H]2O[C@](O)(C[C@@H](O)C[C@@H](O)[C@H](O)CC[C@@H](O)C[C@@H](O)CC(=O)O[C@H]1C)C[C@H](O)[C@H]2C(=O)O [amphotericin B]	–	–	–	–	–	–	–	SI (L. braziliensis): 6.8
CC(=O)OC[C@H]1O[C@@H]([S-])[C@H](OC(C)=O)[C@@H](OC(C)=O)[C@@H]1OC(C)=O.CCP(CC)CC.[Au+] [auranofin]	–	–	–	–	–	–	9.68 ± 1.02 µM	–
CCCCCCCCCCCCCCCCOP(=O)([O-])OCC[N+](C)(C)C [miltefosine]	–	–	–	–	–	–	14.4 ± 1.1 µM	–
COc1cc(NC(C)CCCN)c2ncccc2c1 (centres unmarked) [primaquine]	–	–	–	–	–	–	26.5 ± 1.2 µM	–
